From the supplement of paper PMC10307832

Key:
Experiment in all cases: relative viability (nuclei count vs DMSO), 5 days (fraction); higher = more cells survive
[1] = compound: CC(C)C[C@@H](C(=O)N[C@H](C(=O)OC1CCCC1)c1ccccc1)[C@H](O)C(=O)NO [Tosedostat] + CS(=O)(=O)CCNCc1ccc(-c2ccc3ncnc(Nc4ccc(OCc5cccc(F)c5)c(Cl)c4)c3c2)o1 [Lapatinib] (partner 2 µM)
Procedure, shortened: (§1)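 Relative viability was taken as the ratio of nuclei in treated wells to nuclei in vehicle wells. Lung cancer cell lines in 1536-well plates received compounds by pin tool one day after seeding, either one drug alone or a fixed anchor-drug dose plus five library-drug doses (not always all listed) in √10 steps. Nuclei were counted on 4× images after 5 days of treatment, and values are medians of duplicate plates.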

[2] = compound: CC1=NN=C(O1)C2=NN=C(C=C2)N3CCC(CC3)OC4=C(C=CC(=C4)F)Cl + CC(=O)Nc1cccc(-n2c(=O)n(C3CC3)c(=O)c3c(Nc4ccc(I)cc4F)n(C)c(=O)c(C)c32)c1 [Trametinib] (partner 0.02 µM)
Procedure, shortened: as §1

[3] = compound: CC(C)C[C@@H](C(=O)N[C@H](C(=O)OC1CCCC1)c1ccccc1)[C@H](O)C(=O)NO [Tosedostat] + CS(=O)(=O)N1CCN(Cc2cc3nc(-c4cccc5[nH]ncc45)nc(N4CCOCC4)c3s2)CC1 [Pictilisib] (partner 1 µM)
Procedure, shortened: as §1

[4] = compound: CC(C)C[C@@H](C(=O)N[C@H](C(=O)OC1CCCC1)c1ccccc1)[C@H](O)C(=O)NO [Tosedostat] + CC(=O)Nc1cccc(-n2c(=O)n(C3CC3)c(=O)c3c(Nc4ccc(I)cc4F)n(C)c(=O)c(C)c32)c1 [Trametinib] (partner 0.02 µM)
Procedure, shortened: as §1

## UMC-11
[1]; first compound 0.02 µM
  relative viability: 1.05
[1]; first compound 0.06325 µM
  relative viability: 1.01
[1]; first compound 0.2 µM
  relative viability: 0.957
[1]; first compound 0.6325 µM
  relative viability: 1.19
[1]; first compound 2 µM
  relative viability: 0.96
[2]; first compound 0.253 µM
  relative viability: 0.457
[2]; first compound 0.8 µM
  relative viability: 0.531
[2]; first compound 2.53 µM
  relative viability: 0.33
[2]; first compound 8 µM
  relative viability: 0.43
[3]; first compound 0.02 µM
  relative viability: 0.911
[3]; first compound 0.06325 µM
  relative viability: 0.807
[3]; first compound 0.2 µM
  relative viability: 0.782
[3]; first compound 0.6325 µM
  relative viability: 0.705
[3]; first compound 2 µM
  relative viability: 0.828
[4]; first compound 0.02 µM
  relative viability: 0.863
[4]; first compound 0.06325 µM
  relative viability: 0.681
[4]; first compound 0.2 µM
  relative viability: 0.663
[4]; first compound 0.6325 µM
  relative viability: 0.855
[4]; first compound 2 µM
  relative viability: 0.664
